Test results from patent US11304886B2, “N-acyl sarcosines as antimicrobials for preservation of home and personal care products” (GALAXY SURFACTANTS LTD., priority 2016, dated 2022).

Legend:
Test in all cases: Minimum Inhibitory Concentration (MIC)
Format in all cases: cell-based
[1] = test system: Pseudomonas aeruginosa ATCC 15442
[2] = test system: Staphylococcus aureus ATCC 6538
[3] = test system: Propionibacterium acnes ATCC 1953
[4] = test system: Malassezia furfur MTCC 1374
[5] = test system: Escherichia coli ATCC 8739
[6] = test system: Candida albicans ATCC 10231
[7] = test system: Aspergillus niger ATCC 16404

Structure (SMILES)	MIC (%) [1] [%]	MIC (%) [2] [%]	MIC (%) [3] [%]	MIC (%) [4] [%]	MIC (%) [5] [%]	MIC (%) [6] [%]	MIC (%) [7] [%]
CCCCCCCC(=O)N(C)CC(=O)O [N-Capryloyl sarcosine, N-Capryloyl Sarcosine]	0.7	0.7	0.6	0.6	0.7	0.7	>1.0
C=CCCCCCCCCC(=O)N(C)CC(=O)O [N-Undecylenoyl sarcosine, N-Undecylenoyl Sarcosine]	0.6	0.6	0.7	0.6	0.7	0.6	>1.0
OCCOc1ccccc1 [phenoxy ethanol, 2-phenoxy ethanol, reference compound]	0.8	0.8	0.4	0.6	0.6	0.6	0.9
